From patent US5840485A, “Topologically segregated, encoded solid phase libraries” (priority 1994, dated 1998)
Entries after “also recorded” stand apart in the source; their conditions may differ. Where two headings read alike, the source gives them in different places.

Experiments:
[1] = system: anti-β-endorphin antibody; assay: Antibody detection of model test compounds on non-sequentially coded beads; assay type: binding; conditions: test compound on bead surface, coding molecule inside
Description: The test compound sequences prepared were Tyr-Gly-Ala-Phe SEQ ID NO:12 and Phe-Gly-Ala-Phe SEQ ID NO:13, coded by doublets of amino acids (see Scheme XIC), and Tyr-Gly-Gly-Phe-Leu SEQ ID NO:14 and Phe(Cl)-Gly-Gly-Phe-Leu SEQ ID NO:15 (encoded by coding by Scheme XIB). […] Moreover, the fidelity and coding could be confirmed by directly sequencing the test peptides.
Therefore, the synthesis was not performed in successive steps of coupling test AA subunit followed by a pair of coding subunits, but rather using the more convenient scheme described below. […] The mixture of amino acids coding for phenylalanine in position four of the test compound structure (Boc-Sar and Boc-Asp(OBzl) in a molar ratio of 1:1 (reflecting their relatively equivalent coupling reactivity which had previously been determined experimentally) was coupled using DIC and HOBT (3 eq each). The reaction was monitored by bromophenol blue method. The resin was washed by DMF (5×) and the Dde group was deprotected by 2% hydrazine hydrate in DMF (10 min). The resin was washed by DMF (5×), 2% HOBT in DMF, and Fmoc-Lys(Dde) was coupled, and Fmoc group removed. The procedure of coupling mixtures of Boc amino acids and Fmoc-Lys(Dde) was repeated two times (coupling the coding subunit mixtures of Ile and Val (2:1) and Lys(ClZ) and Glu(OBzl) (1.5:1)) and after deprotection of the Dde group, Boc-Lys(Fmoc) was coupled to the resin in both syringes. […]

[2] = system: anti-β-endorphin monoclonal antibody (clone 3-E 7); assay: Screening of encoded peptide library XXXX-Lys(XXXX)-Lys(ZZ) on beads; assay type: binding; conditions: Table 3, two cycles of Edman degradation
Description: After thorough washing, streptavidin-alkaline phosphatase was added. One hour later, the beads were washed, substrate was added, and color development proceeded as described above. The color beads were then physically isolated and subjected to sequencing. In these two experiments, only the darkest beads were sequenced.

streptavidin [3] = target: T1, streptavidin (Streptomyces avidinii, UniProt P22629); conditions: for activity with streptavidin after chymotrypsin: in words
Description: (§1) Beads were carefully washed and transferred to 0.1M ammonium carbonate buffer of pH 7.7. Chymotrypsin (1 mg) was added and suspension was shaken at 37° C. for 20 hours. The same treatment was repeated twice for 4 hours.
(§2) Beads were carefully washed and prepared for staining with anti-β-endorphin as described previously.
(§3) Treated beads were tested for binding to anti-β-endorphin and streptavidin.

chymotrypsin = assay: Chymotrypsin cleavage of bead-bound substrates; assay type: biochemical; conditions: for cleavage by chymotrypsin (substrate quality) / decrease in the total amount of peptide on bead after chymotrypsin: bead-bound peptide
Description: as §1
Resin was washed and transferred to the 0.1M ammonium carbonate buffer pH 7.7. Chymotrypsin treatment was performed in the same way as described above.
A simple substrate for chymotrypsin, Boc-Phe, was synthesized on all available amino groups of the solid carrier.

[4] = system: anti-β-endorphin antibody; assay: Binding to peptide beads (staining) with or without chymotrypsin treatment / surface synthesis
Description: as §1, §2, §3

streptavidin [5] = target: T1, streptavidin; assay: Screening of encoded peptide library XXXX-Lys(XXXX)-Lys(ZZ) on beads; assay type: binding; conditions: Table 3, two cycles of Edman degradation
Description: The peptide library was screened according to published procedures (Lam and Lebl, 1992, Immunomethods 1: 11-15). The peptide beads were first mixed with double-distilled water to remove the DMF. After extensive washing with PBS (137 mM NaCl, 2.7 mM KCl, 4.3 mM Na2 HPO4, 1.4 mM KH2 PO4, pH 7.2), the beads were coated with 0.05% gelatin (w/v) to block any nonspecific binding. The beads were then incubated with a 1:100,000 dilution of streptavidin-alkaline phosphatase at 2 mg/ml (Pierce; Rockford, Ill.) in 2× PBS/Tween/gelatin (2× PBS, 0.1% Tween-20 (v/v), and 0.05% gelatin (w/v)). The beads were then thoroughly washed with TBS (137 mM NaCl, 2.7 mM KCl, 25 mM Tris base, pH 7.4) and the standard substrate 5-bromo-4-chloro-3-indolyl phosphate was added. The beads, together with the substrate, were then transferred to petri dishes for color development. After 30 minutes to 1 hour, the colored beads were collected, with the aid of a micropipette, washed with 6M guanidine hydrochloride, pH 1.0, and subjected to sequencing as described.
This library was used in the screening against two model targets, anti-β-endorphin monoclonal antibody, and streptavidin. […]

anti-β-endorphin = assay: Semi-quantitative staining of peptide-beads blocked with polyglutamic acid, biotinyl-anti-β-endorphin followed by streptavidin-AP; assay type: binding
Description: TentaGel amide AM resin (0.3 meq/gram substitution) was hydrated in H2 O for several hours, and washed with 0.1M 2-[N-morpholino]ethanesulfonic acid (MES) buffer, pH 5.7. A varying amount (0 to 10 mg) of polyglutamic acid (Mr 30,000, Sigma Chemical) was added to each of the 0.2 ml of settled bead. Sixty mg of 1-ethyl-3-(3-dimethylamino-propyl) carbodiimide-HCl (EDC) was then added to each tube. The reaction mixtures were rocked gently overnight. The beads were then washed into double distilled (dd) H2 O and 0.24 mmol ethanolamine plus 60 mg EDC in MES buffer were added to each sample. After 4 hours of gentle shaking, the resin was washed extensively with dd H2 O. The resin was then lyophilized to dryness. The treated resin was swollen in dimethylformamide (DMF). Using Fmoc chemistry, the peptide, […] SEQ ID NO:11 was synthesized on each of the treated resin samples using standard techniques. The N-terminal Fmoc group and the side chain protected groups were removed with piperidine and trifluoracetic acid as described (Lam et al., 1991, Nature 354: 82-84).

[6] = two-peptide beads, surface deprotected by chymotrypsin

T1 sequence (P22629 25-183): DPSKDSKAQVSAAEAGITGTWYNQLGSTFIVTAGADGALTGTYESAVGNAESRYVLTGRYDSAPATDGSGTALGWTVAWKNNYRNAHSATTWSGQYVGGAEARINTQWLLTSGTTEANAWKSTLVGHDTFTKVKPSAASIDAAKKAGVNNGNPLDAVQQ

## Phe-Gly-Ala-Phe (FGAF)
[1]
  detection by anti-β-endorphin antibody: negative control

## YGPF: test peptide sequence deduced from positive beads of the encoded library
[2]
  Target of positive bead, deduced sequence: anti-β-endorphin

## YGGF: test peptide sequence deduced from positive beads of the encoded library
[2]
  Target of positive bead, deduced sequence: anti-β-endorphin

## Tyr-Gly-Ala-Phe (YGAF)
[1]
  detection by anti-β-endorphin antibody: positive
[1]; listed as Tyr-Gly-Ala-Phe
  detection by anti-β-endorphin antibody: can be detected

## LHPQFYG [model peptide synthesized on TentaGel AM with linker β-Ala-Gly-β-Ala-Gly]
Streptavidin [3]
  activity with streptavidin after chymotrypsin: completely abrogated
Streptavidin [3]; listed as LHPQF-YG
  activity with streptavidin after chymotrypsin: completely lost activity
chymotrypsin
  cleavage by chymotrypsin (substrate quality): proceeded efficiently
  decrease in the total amount of peptide on bead after chymotrypsin: minimal

## LHFQF: LHFQF SEQ ID NO:10 was a poor substrate for chymotrypsin
chymotrypsin
  cleavage by chymotrypsin (substrate quality): poor substrate

## YGGFL
[4]; after chymotrypsin, in words
  binding activity to anti-β-endorphin antibody after chymotrypsin: completely lost binding activity
[4]; [6]
  staining / reaction with anti-β-endorphin of beads with YGGFL on surface and second peptide inside: indistinguishable from staining of the beads containing only YGGFL sequence; also recorded: positive reaction; also recorded: available on the surface of the bead for the interaction with the relevant acceptor
chymotrypsin
  decrease in the total amount of peptide on bead after chymotrypsin: minimal

## CC(C)(C)OC(=O)N[C@@H](Cc1ccccc1)C(=O)O [Boc-Phe]
chymotrypsin; Boc-Phe on all available amino groups of carrier, various conditions
  release of Boc-Phe by chymotrypsin: ~1.1%

## LHPQF
Streptavidin [3]; [6]
  reaction with streptavidin of beads with YGGFL on surface and LHPQF inside: positive reaction; also recorded: still available for interaction with streptavidin

## HPQF: test peptide sequence deduced from positive beads of the encoded library
Streptavidin [5]
  Target of positive bead, deduced sequence: streptavidin positive

## YGGFLGGG [peptide synthesized on polyglutamic acid treated resin]
anti-β-endorphin; blocked resin, in words
  staining of polyglutamic acid-blocked resin: stained only weakly
anti-β-endorphin; polyglutamic acid 10 mg per 0.2 ml resin
  Labeling with biotinyl-anti-β-endorphin followed by streptavidin-AP: trace
